Test results taken from ChEMBL document CHEMBL5375959 (J Med Chem, 2023).
Blank lines part the entries; values can stand above or below the compound they belong to. Active and inactive are the calls of the source. The rule behind the calls is not given here.

Tests used:
[1] = Permeability of the compound measured after 24 hrs by PAMPA; format: ADME; details: read-out: permeability
[2] = target: T1, Ryanodine receptor 2 (Homo sapiens, UniProt Q92736); experiment: Modulator activity at wild type RyR2 (unknown origin) expressed in HEK293T co-expressed with R-CEPIA1er assessed as decrease in RyR2-mediated calcium leak in presence of calcium chloride by time-lapse fluorescence analysis; format: cell-based
[3] = target: Sarcoplasmic/endoplasmic reticulum calcium ATPase 2 (Mus musculus) (UniProt O55143); experiment: (§1) Activation of SERCA2a in mouse HL-1 cells assessed as increase in caffeine-induced calcium release incubated for 2 hrs by FLIPR Calcium 6 dye based caffeine assay; format: cell-based
Sarcoplasmic/endoplasmic reticulum calcium ATPase 2 (Mus musculus), sequence (O55143 whole entry): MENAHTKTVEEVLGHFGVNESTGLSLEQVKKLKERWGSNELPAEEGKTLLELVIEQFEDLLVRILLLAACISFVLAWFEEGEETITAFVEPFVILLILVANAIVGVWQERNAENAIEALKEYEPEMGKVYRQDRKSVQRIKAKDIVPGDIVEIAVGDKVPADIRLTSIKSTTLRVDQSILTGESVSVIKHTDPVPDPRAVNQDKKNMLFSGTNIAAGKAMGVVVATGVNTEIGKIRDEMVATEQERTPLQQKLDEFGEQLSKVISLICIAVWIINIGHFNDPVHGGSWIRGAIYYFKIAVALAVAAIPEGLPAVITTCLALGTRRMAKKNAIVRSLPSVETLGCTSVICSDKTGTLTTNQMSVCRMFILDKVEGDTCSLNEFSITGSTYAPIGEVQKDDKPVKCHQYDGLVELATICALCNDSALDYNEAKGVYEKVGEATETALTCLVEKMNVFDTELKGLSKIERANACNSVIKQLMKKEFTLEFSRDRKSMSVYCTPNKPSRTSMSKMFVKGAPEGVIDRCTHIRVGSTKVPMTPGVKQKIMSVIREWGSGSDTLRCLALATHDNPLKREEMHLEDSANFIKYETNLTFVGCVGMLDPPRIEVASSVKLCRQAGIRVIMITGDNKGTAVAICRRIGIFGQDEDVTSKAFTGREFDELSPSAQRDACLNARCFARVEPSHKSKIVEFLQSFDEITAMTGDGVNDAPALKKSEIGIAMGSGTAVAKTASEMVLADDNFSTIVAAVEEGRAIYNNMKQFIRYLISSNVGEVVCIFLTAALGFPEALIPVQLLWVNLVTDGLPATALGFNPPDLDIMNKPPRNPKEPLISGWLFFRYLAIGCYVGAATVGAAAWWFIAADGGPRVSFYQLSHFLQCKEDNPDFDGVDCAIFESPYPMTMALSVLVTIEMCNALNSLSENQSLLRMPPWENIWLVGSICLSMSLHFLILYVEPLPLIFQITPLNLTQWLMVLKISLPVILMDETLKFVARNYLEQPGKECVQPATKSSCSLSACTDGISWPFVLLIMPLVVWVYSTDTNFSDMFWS

[4] = target: Sarcoplasmic/endoplasmic reticulum calcium ATPase 2 (Mus musculus) (UniProt O55143); experiment: Activation of SERCA2a in mouse HL-1 cells assessed as increase in caffeine-induced calcium release at 0.1 to 50 uM incubated for 2 hrs by FLIPR Calcium 6 dye based caffeine assay; format: cell-based; details: dose 0.1-50 µM
[5] = target: Sarcoplasmic/endoplasmic reticulum calcium ATPase 2 (Mus musculus) (UniProt O55143); experiment: Activation of SERCA2a in mouse HL-1 cells assessed as increase in caffeine-induced calcium release at 10 uM incubated for 2 hrs by FLIPR Calcium 6 dye based caffeine assay; format: cell-based
[6] = target: T1, Ryanodine receptor 2; experiment: Modulator activity at wild type RyR2 (unknown origin) expressed in HEK293T co-expressed with R-CEPIA1er assessed as decrease in RyR2-mediated calcium leak at 25 uM in presence of calcium chloride by time-lapse fluorescence analysis; format: cell-based; details: filed as modulator
[7] = target: Sarcoplasmic/endoplasmic reticulum calcium ATPase 2 (Homo sapiens) (UniProt P16615); experiment: Activation of SERCA2a in human HEK293T cells endoplasmic reticulum assessed as increase in […] measured for 10 mins in presence of ATP by NADH fluorescence-coupled ATPase assay; format: subcellular
Sarcoplasmic/endoplasmic reticulum calcium ATPase 2 (Homo sapiens), sequence (P16615 whole entry): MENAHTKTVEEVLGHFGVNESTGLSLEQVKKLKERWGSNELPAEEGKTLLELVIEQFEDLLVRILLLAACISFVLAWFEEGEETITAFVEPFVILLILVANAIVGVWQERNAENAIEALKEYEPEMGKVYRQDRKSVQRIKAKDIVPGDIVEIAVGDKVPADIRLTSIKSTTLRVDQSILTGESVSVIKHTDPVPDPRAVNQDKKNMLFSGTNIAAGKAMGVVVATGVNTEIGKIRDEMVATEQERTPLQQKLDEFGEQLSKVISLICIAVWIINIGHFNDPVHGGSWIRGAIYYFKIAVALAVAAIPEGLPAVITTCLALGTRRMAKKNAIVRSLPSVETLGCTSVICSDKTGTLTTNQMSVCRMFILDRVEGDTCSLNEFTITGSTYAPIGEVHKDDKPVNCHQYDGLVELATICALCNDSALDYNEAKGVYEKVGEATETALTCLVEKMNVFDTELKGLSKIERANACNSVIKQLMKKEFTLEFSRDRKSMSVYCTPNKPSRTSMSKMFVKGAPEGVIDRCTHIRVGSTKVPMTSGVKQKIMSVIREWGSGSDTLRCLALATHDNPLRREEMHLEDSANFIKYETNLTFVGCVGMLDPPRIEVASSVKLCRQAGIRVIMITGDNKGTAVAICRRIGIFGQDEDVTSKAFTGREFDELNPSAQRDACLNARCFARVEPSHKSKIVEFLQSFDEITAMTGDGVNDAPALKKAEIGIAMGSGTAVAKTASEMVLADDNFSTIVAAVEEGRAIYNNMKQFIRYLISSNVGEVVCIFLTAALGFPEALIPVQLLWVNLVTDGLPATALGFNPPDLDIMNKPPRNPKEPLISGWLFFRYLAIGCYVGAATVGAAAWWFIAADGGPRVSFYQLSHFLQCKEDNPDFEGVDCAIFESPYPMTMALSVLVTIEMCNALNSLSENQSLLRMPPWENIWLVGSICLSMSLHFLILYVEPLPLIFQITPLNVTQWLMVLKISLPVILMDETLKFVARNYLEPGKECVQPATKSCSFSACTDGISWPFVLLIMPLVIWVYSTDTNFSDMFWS

[8] = target: Sarcoplasmic/endoplasmic reticulum calcium ATPase 2 (Mus musculus) (UniProt O55143); experiment: Activation of SERCA2a in C57BL/6N mouse sarcoplasmic reticulum assessed as increase in […] measured for 10 mins in presence of ATP by NADH fluorescence-coupled ATPase assay; format: subcellular; details: filed as activator
[9] = target: Sarcoplasmic/endoplasmic reticulum calcium ATPase 2 (Mus musculus, UniProt O55143); experiment: as §1; format: cell-based
Sarcoplasmic/endoplasmic reticulum calcium ATPase 2, sequence (O55143 whole entry): as the sequence (O55143 whole entry) above

[10] = target: T1, Ryanodine receptor 2; experiment: Modulator activity at wild type RyR2 (unknown origin) expressed in HEK293T co-expressed with R-CEPIA1er assessed as decrease in RyR2-mediated calcium leak at 1 mM in presence of calcium chloride by time-lapse fluorescence analysis; format: cell-based; details: filed as modulator
[11] = target: Sarcoplasmic/endoplasmic reticulum calcium ATPase 2 (Mus musculus) (UniProt O55143); experiment: Activation of SERCA2a in mouse HL-1 cells assessed as increase in caffeine-induced calcium release at 3 uM incubated for 2 hrs by FLIPR Calcium 6 dye based caffeine assay relative to control; format: cell-based; details: filed as activator
[12] = target: Sarcoplasmic/endoplasmic reticulum calcium ATPase 2 (Mus musculus) (UniProt O55143); experiment: Activation of SERCA2a in mouse HL-1 cells assessed as increase in caffeine-induced calcium release at 10 uM incubated for 2 hrs by FLIPR Calcium 6 dye based caffeine assay relative to control; format: cell-based; details: filed as activator
[13] = target: Sarcoplasmic/endoplasmic reticulum calcium ATPase 2 (Mus musculus) (UniProt O55143); experiment: Activation of SERCA2a in mouse HL-1 cells assessed as increase in caffeine-induced calcium release at 25 uM incubated for 2 hrs by FLIPR Calcium 6 dye based caffeine assay; format: cell-based
[14] = target: Sarcoplasmic/endoplasmic reticulum calcium ATPase 2 (Mus musculus) (UniProt O55143); experiment: Activation of SERCA2a in mouse HL-1 cells assessed as increase in caffeine-induced calcium release at 50 uM incubated for 2 hrs by FLIPR Calcium 6 dye based caffeine assay; format: cell-based

Compound: COc1ccc2c(c1)CN(C(=O)C(=O)O)CCS2 [ALADORIAN]
Papp at 24 h [1]: 1 ×10⁻⁶ cm/s
Activity ([2]; filed as modulator): Active
Activity [3]: inactive
Activity [4]: inactive
Activity [5]: inactive
Activity [6]: Active

Compound: COc1ccc2c(c1)CN(CCCCNCCCCC1(O)CC1)CCS2
Papp at 24 h [1]: 0.8 ×10⁻⁶ cm/s
EC50 [2]: 8.17 µM
Activity [7]: inactive
Activity [8]: Active

Compound: COc1ccc2c(c1)CN(CCCCC1(O)CC1)CCS2
Papp at 24 h [1]: 3.6 ×10⁻⁶ cm/s
Activity [2]: inactive
EC50 [9]: > 1000 µM
Activity ([7]; filed as activator): Active
Activity [8]: Active

Compound: COc1ccc2c(c1)CN(C)CCS2
Papp at 24 h [1]: 1.2 ×10⁻⁶ cm/s
Activity ([2]; filed as modulator): Active
Activity [3]: inactive
Activity [4]: inactive
Activity [5]: inactive
Activity [10]: Active

Compound: COc1ccc2c(c1)CN(Cc1ccc(C(=O)O)cc1)CCS2 [SURLORIAN]
Papp at 24 h [1]: 6.8 ×10⁻⁶ cm/s
Activity ([2]; filed as modulator): Active
Activity ([3]; filed as activator): Dose-Dependent Effect
EC50 [9]: 34.3 µM
Activity ([7]; filed as activator): Active
Activity [8]: Active

Compound: O=C1CN(/N=C/c2ccc(-c3ccc([N+](=O)[O-])cc3)o2)C(=O)N1
Activity [6]: Active

Now from value to compound:

Papp at 24 h [1]: 3.6 ×10⁻⁶ cm/s
Activity ([7]; filed as activator): Active
Activity [8]: Active
Compound: COc1ccc(SCCCN(CCCCC2(O)CC2)CCCCC2(O)CC2)cc1

Papp at 24 h [1]: 4 ×10⁻⁶ cm/s
EC50 [2]: > 23 µM
EC50 [9]: 1.5 µM
Activity ([7]; filed as activator): Active
Activity [8]: Active
Activity [11]: 150%
Activity [12]: 150%
Activity [13]: inactive
Activity [14]: inactive
Compound: COc1ccc(OCCCN(CCCCC2(O)CC2)CCCCC2(O)CC2)cc1

Papp at 24 h [1]: 0.6 ×10⁻⁶ cm/s
EC50 [2]: 2.7 µM
Activity [6]: Active
Compound: COc1ccc2c(c1)CN(CCCCN(CCCCC1(O)CC1)CCCCC1(O)CC1)CCS2

Papp at 24 h [1]: 4 ×10⁻⁶ cm/s
Activity [7]: inactive
Activity [8]: Active
Compound: COc1ccc(OCCCNCCCCC2(O)CC2)cc1

Papp at 24 h [1]: 6.9 ×10⁻⁶ cm/s
Activity ([7]; filed as activator): Active
Activity [8]: Active
Compound: COc1ccc(SCCCNCCCCC2(O)CC2)cc1
